Experimental findings from US4659728A, “Hydroxy substituted 4,5-diphenyl-2-oxazole propanoic acid” (American Home Products Corporation, priority 1985, dated 1987) are described below.

Experiment [1] deals with carrageenan paw edema in the rat. Nature of the experiment: Rat carrageenan edema. Format: in vivo, rat (male Sprague-Dawley). To be noted: 1 h before carrageenan, edema at 3 h, *p ≤ 0.01 from control. On the procedure:
(§1) The antiinflammatory utility of the compounds of this invention was established by standard procedures for evaluating antiinflammatory agents, namely, carrageenan paw edema in the rat and adjuvant arthritis (polyarthritis) in the rat. These procedures and the results obtained are summarized below:
(§2) Groups of 6 male Sprague-Dawley rats (Honey Brook), weighing between 140-160 g were used in these experiments. Drugs were administered p.o. in 0.5% methylcellulose (400 centipoise). One hour after administering drugs or vehicle, 0.1 ml of 1% carrageenan was injected subplantar into the right hind paw. Right paw volumes were measured prior to carrageenan injection in milliliters using a mercury plethysmograph (i.e., zero time reading). After 3 hours, right paw volumes were remeasured and paw edema was calculated for each rat by subtracting the zero time reading from the 3 hour reading. Percent change in paw edema was calculated.
(The carrageenan paw model is a standard test of acute inflammation.)

Experiment [2] relates to adjuvant arthritis (polyarthritis) in the rat. Nature of the experiment: Rat adjuvant arthritis. It is filed as in vivo, rat (male Lewis). To be noted: oral dose 150 mg/kg, days 0 to 15 except weekends; *p ≤ 0.01 from control. Here is the method:
as §1
Groups of 10 male Lewis rats (Charles River), weighing between 150-170 g were injected s.c. into the right paw with desiccated Mycobacterium butyricum (0.5 mg/0.1 ml) suspended in light mineral oil. Drugs were administered orally in 0.5% methylcellulose. The following dosing regimen was used: days 0 to 15 except for weekends. Both hind paw volumes, in milliliters, were measured by mercury plethysmography at the time of injection of the complete adjuvant (day 0). Paw volumes were measured on day 4 (injected paw only) and on day 16 (uninjected paw). Drug effects were expressed as percentage change from arthritic controls.

In another experiment the test system is inflammation. The experiment is described as follows: Antiinflammatory activity overall (standard procedures: carrageenan paw edema and adjuvant arthritis in the rat). The settings on record: compared with oxaprozin. Format: in vivo. On the procedure: as §1, §2
Groups of 10 male Lewis rats (Charles River), weighing between 150-170 g were injected s.c. into the right paw with desiccated Mycobacterium butyricum (0.5 mg/0.1 ml) suspended in light mineral oil. […] Both hind paw volumes, in milliliters, were measured by mercury plethysmography at the time of injection of the complete adjuvant (day 0). Paw volumes were measured on day 4 (injected paw only) and on day 16 (uninjected paw). […]

Consider `O=C(O)CCc1nc(-c2ccccc2)c(-c2ccccc2)o1` [Oxaprozin, 4,5-diphenyl-2-oxazolepropanoic acid, reference compound], for which the “% Inhibition of control paw edema” value in experiment [1] (oral dose 200 mg/kg) turned out to be 51%. Besides, the “% Inhibition of control uninjected paw edema at day 16” value (“% Inhibition … at day 16” below) in experiment [2] was determined as 25%.

In the case of `O=C(O)CCc1nc(-c2ccc(O)cc2)c(-c2ccccc2)o1` [Example 2, 4-(4-Hydroxyphenyl)-5-phenyl-2-oxazolepropanoic acid], the “% Inhibition of control paw edema” value in experiment [1] (oral dose 150 mg/kg) stood at 46%. In addition, in the experiment with inflammation, the “effectiveness in inhibiting inflammation” value is “as effective as oxaprozin in inhibiting inflammation”. Further, the “% Inhibition … at day 16” value in experiment [2] came out at 30%.

Turning to `O=C(O)CCc1nc(-c2ccccc2)c(-c2ccc(O)cc2)o1` [Example 1, 5-(4-hydroxyphenyl)-4-phenyl-2-oxazolepropanoic acid], in experiment [1] (oral dose 150 mg/kg), the “% Inhibition of control paw edema” value worked out at 43%. For the same compound, in the experiment with inflammation, the “effectiveness in inhibiting inflammation” value is “as effective as oxaprozin in inhibiting inflammation”. The “% Inhibition … at day 16” value in experiment [2] was 36%.
